Test results taken from patent publication US20080064629A1, “Amphiregulin as a Protective Agent in Acute Hepatic Injury” (priority 2004, published 2008).

Legend:
Type in all cases: cell-based
[1] = tested on: rat hepatocytes; assay: DNA synthesis ([3H]thymidine incorporation) in cultured rat hepatocytes; settings: for reduction of the effects of AR on DNA synthesis: AR 100 nM, PD98059 10 μM, SP600125 20 μM; for effect on DNA synthesis stimulated by AR (in words): AR 100 nM with PD153035 1 μM, LY294002 20 μM, SB202190 25 μM, TGFβ 8 ng/ml
Experimental: For DNA synthesis, rat hepatocytes were plated to a density of 3×10^4 cells/well in 96-well plates coated with collagen in MEM medium supplemented with 10% FCS. Five hours after plating, the medium was changed and cells were maintained in absence of serum for another 20 hours. DNA synthesis was assayed after 30 h of treatment with AR. A pulse of [^3H]thymidine was administered (1 μCi/well)(Amersham Biosciences, Piscataway, N.J., USA) 22 h after the addition of AR. Cells were harvested, and the incorporation of thymidine was determined with a scintillation counter. Evaluations were made of the effect of AR on DNA synthesis in the presence of MEK1 inhibitor, PD98059, PI-3K inhibitor, LY294002, p38 MAPK inhibitor, SB202190, JNK inhibitor, SP600125, and of the EGF-R tyrosine kinase activity inhibitor, PD153035—all supplied by Calbiochem.

[2] = tested on: mouse hepatocytes in primary culture; assay: Apoptosis induced by actinomycin D and Jo2 antibody in mouse hepatocytes in primary culture; settings: AR 20 nM; PD153035 1 μM, PD98059 10 μM, LY-294002 20 μM; actinomycin D and Jo2
Text: In order to determine whether the in vivo antiapoptotic effects of AR could be mediated by direct action of AR on liver parenchymal cells, the inventors used mouse hepatocytes in primary culture. It has been reported that hepatocytes exposed to Jo-2 antibodies undergo apoptosis effectively in presence of actinomycin D [(5), (6), (33) Ni, R., Tomita, Y., Matsuda, K., Ichiara, A., Ishimura, K., Ogasawara, J., Nagata, S. 1994. Fas-mediated apoptosis in primary cultured mouse hepatocytes. Exp. Cell Res. 215: 332-337]. Hepatocytes were pretreated with different concentrations of AR during […] before addition of actinomycin D and Jo2 antibody. Measurements of apoptosis and related molecular events, were made 18 h later. […] Likewise, they found antiapoptotic protein Bcl-xL to be induced by treatment with AR in mouse hepatocytes treated with Jo2 (FIG. 4B). In order to identify the AR antiapoptotic signaling mechanisms, PI-3K/Akt and ERK1/2 pathways were studied, as they are general mediators of cell survival [(4), (6)]. […] A key signaling molecule implicated in protection against liver damage induced by Fas is STAT3 [(34) Shen, Y., Devgan, G., Darnell, J. E., Bromberg, J. F. 2001. Constitutively activated Stat3 protects fibroblasts from serum withdrawal and UV-induced apoptosis and antagonizes the proapoptotic effects of activated Statl. Proc. Natl. Acad. Sci. USA. 98: 1543-1548. (35) Haga, S., Terui, K., Zhang, H. Q., Enosawa, S., Ogawa, W., Inoue, H., Okuyama, T., Takeda, K., Akira, S., Ogino, T., et al. 2003. Stat3 protects against Fas-induced liver injury by redox-dependent and -independent mechanisms. J. Clin. Invest. 112: 989-998].
(§1) Hepatocytes were isolated from male Wistar rats (150 g) and C57/BL6 mice (20 g) by perfusion with collagenase (Gibco-BRL, Paisley, UK) as described elsewhere [(18), (20)]. Cells (5×10^5 cells per well) were plated onto 6-well plates coated with collagen (type I collagen, Collaborative Biomedical, Bedford, Mass., USA). Cultures were maintained in MEM medium supplemented with 10% fetal calf serum (FCS), non-essential amino acids, glutamine 2 mM and antibiotics (all supplied by Gibco-BRL). After 2 h of incubation, the medium was removed and cells were again cultured in the same medium with 5% FCS. Where applicable, hepatocytes were treated with IL-1β or TNFα from Roche (Mannheim, Germany), HGF or forskolin from Calbiochem (San Diego, Calif., USA), IL6 from RD Systems (Wiesbaden-Nordenstadt, Germany), or PGE2 from Alexis QBiogene (Carlsbad, Calif., USA).
Apoptosis was induced in cultured mouse hepatocytes by treatment with 0.5 μg/ml of Jo2 antibody and 0.05 μg/ml of actinomycin D as described elsewhere (5). Where applicable, the hepatocytes were treated with AR 6 h before the addition of Jo2 antibody and actinomycin D. Apoptosis was estimated by determining soluble histone-DNA complexes using the Cell Death Detection Assay (Roche). ELISA tests for determining cell death were carried out following the manufacturer's instructions. The specific enrichment of mono- and oligonucleosomes released in the cytoplasm (enrichment factor, EF) was calculated as the ratio between the absorbance values of the samples corresponding to treated cells and control cells. […]
Caspase-3 activity in mouse hepatocytes and liver tissue lysates was assessed using the Caspase-3/CPP32 colorimetric assay kit (BioVision, Palo Alto, Calif., USA). […]

[3] = tested on: AR gene expression in rat hepatocytes; assay: AR gene expression in cultured rat hepatocytes (real time PCR); settings: IL-1β 2 ng/ml; PGE2 10 μM; forskolin, hydrogen peroxide, menadione data not shown
Experimental: as §1
Total RNA was extracted using TRI reagent (Sigma). […] of RNA were treated with DNase I (Gibco-BRL) before reverse transcription, for which M-MLV enzyme was used (Gibco-BRL) in the presence of RNase OUT (Gibco-BRL). For each PCR reaction 1/10 of each preparation of cDNA was used. PCR products were subjected to electrophoresis in 2% agarose gels, followed by staining with ethidium bromide and quantification using Molecular Analyst software (Bio-Rad, Hercules, Calif., USA). Data were normalized with respect to β-actin gene expression levels. […] All primers were designed to distinguish between the amplification of genomic DNA and cDNA, and all products were sequenced to confirm specificity. The primers used are described below in Table I: […]
Real time PCR was performed using an iCycler (BioRad) and iQ SYBR Green Supermix (Bio-Rad). In order to monitor the specificity of final PCR products, the latter were analysed by fusion curves and electrophoresis. The amount of each transcript was expressed as n-fold the difference versus expression of the reference gene (β-actin)(2^ΔCt, where ΔCt represents the difference in threshold cycle between target genes and control gene).

Row | Compound | effect on DNA synthesis stimulated by AR (in words) [1] | AR gene expression [3] | further results
1 | COc1cccc(-c2cc(=O)c3ccccc3o2)c1N [PD98059, reference compound] | – | – | reduction of the effects of AR on DNA synthesis [1]: 70%; effect of inhibitor on the protection against apoptosis afforded by AR [2]: did not interfere
2 | COc1cc2ncnc(Nc3cccc(Br)c3)c2cc1OC [PD153035, reference compound] | completely prevents | – | effect of inhibitor on the protection against apoptosis afforded by AR [2]: protection afforded by AR was lost
3 | CCCCC[C@H](O)/C=C/[C@H]1[C@H](O)CC(=O)[C@@H]1C/C=C\CCCC(=O)O [PGE2, prostaglandin E2] | – | rapid induction | –
4 | Oc1ccc(-c2nc(-c3ccncc3)c(-c3ccc(F)cc3)[nH]2)cc1 [SB202190] | no significant effect | – | –
5 | Oc1c2ccccc2c2c3c(cccc13)N=N2 [SP600125] | – | – | reduction of the effects of AR on DNA synthesis [1]: 70%
6 | OO [hydrogen peroxide] | – | no effect | –
7 | CC1=CC(=O)c2ccccc2C1=O [menadione] | – | no effect | –
8 | IL-1β: cytokine implicated in liver inflammatory and regenerative processes (Roche) | – | stimulate AR gene expression | –
9 | transforming growth factor β [TGFβ] | abrogated | – | –
